From ChEMBL document CHEMBL4725409, “Understanding and Improving the Membrane Permeability of VH032-Based PROTACs” (ACS Med Chem Lett, 2020)

Test: Permeability of the compound in phosphate buffer containing 5% DMSO at pH 7.4 incubated for 15 hrs by PAMPA based LC/MS analysis
Type: ADME
Conditions: pH 7.4, 15 h

| Structure (SMILES) | Peff |
| --- | --- |
| Cc1ncsc1-c1ccc(CNC(=O)[C@@H]2C[C@@H](O)CN2C(=O)[C@@H](NC(=O)COCCOCCOCCOCCOCCOCC(=O)N[C@H](C(=O)N2C[C@H](O)C[C@H]2C(=O)NCc2ccc(-c3scnc3C)cc2)C(C)(C)C)C(C)(C)C)cc1 | 0.005 10^-6 cm/s |
| Cc1ncsc1-c1ccc(CNC(=O)[C@@H]2C[C@@H](O)CN2C(=O)[C@@H](NC(=O)COCCOCCOCCOCC(=O)N[C@H](C(=O)N2C[C@H](O)C[C@H]2C(=O)NCc2ccc(-c3scnc3C)cc2)C(C)(C)C)C(C)(C)C)cc1 | 0.009 10^-6 cm/s |

Test: Partition coefficient, logD of the compound in 1,9-decadiene and phosphate buffer at pH 7.4 measured after 30 mins under shaking condition by LC-MS analysis
Type: physicochemical
Conditions: not given

| Structure (SMILES) | logD hydrocarbon water at 0.5 h |
| --- | --- |
| Cc1ncsc1-c1ccc(CNC(=O)[C@@H]2C[C@@H](O)CN2C(=O)[C@@H](OC(=O)CCOCCOCCOCCNC(=O)Cc2ccccc2)C(C)(C)C)cc1 | -1.6 |
| Cc1ncsc1-c1ccc(CNC(=O)[C@@H]2C[C@H](O)CN2C(=O)[C@@H](NC(=O)COCCOCCOCCOCCOCCOCC(=O)N[C@H](C(=O)N2C[C@@H](O)C[C@H]2C(=O)NCc2ccc(-c3scnc3C)cc2)C(C)(C)C)C(C)(C)C)cc1 | -3.2 |
| CC(=O)N1c2ccc(-c3ccc(C(=O)NCCOCCOCCOCCOCC(=O)N[C@H](C(=O)N4C[C@H](O)C[C@H]4C(=O)NCc4ccc(-c5scnc5C)cc4)C(C)(C)C)cc3)cc2[C@H](Nc2ccc(Cl)cc2)C[C@@H]1C | -0.7 |
| Cc1ncsc1-c1ccc(CNC(=O)[C@@H]2C[C@@H](O)CN2C(=O)[C@@H](NC(=O)COCCOCCOCCOCCOCCOCC(=O)N[C@H](C(=O)N2C[C@H](O)C[C@H]2C(=O)NCc2ccc(-c3scnc3C)cc2)C(C)(C)C)C(C)(C)C)cc1 | -4.3 |
| CC(=O)N[C@H](C(=O)N1C[C@H](O)C[C@H]1C(=O)NCc1ccc(-c2scnc2C)cc1)C(C)(C)SCCOCCNC(=O)C[C@@H]1N=C(c2ccc(Cl)cc2)c2c(sc(C)c2C)-n2c(C)nnc21 | -3.8 |
| CC(=O)N[C@H](C(=O)N1C[C@H](O)C[C@H]1C(=O)NCc1ccc(-c2scnc2C)cc1)C(C)(C)SCCOCCOCCNC(=O)C[C@@H]1N=C(c2ccc(Cl)cc2)c2c(sc(C)c2C)-n2c(C)nnc21 | -4.3 |
| CC(=O)N1c2ccc(-c3ccc(C(=O)NCCOCCOCC(=O)N[C@H](C(=O)N4C[C@H](O)C[C@H]4C(=O)NCc4ccc(-c5scnc5C)cc4)C(C)(C)C)cc3)cc2[C@H](Nc2ccc(Cl)cc2)C[C@@H]1C | -0.7 |
| Cc1ncsc1-c1ccc(CNC(=O)[C@@H]2C[C@@H](O)CN2C(=O)[C@@H](NC(=O)CCOCCOCCOCCNC(=O)Cc2ccccc2)C(C)(C)C)cc1 | -2.2 |
| CC(=O)N[C@H](C(=O)N1C[C@H](O)C[C@H]1C(=O)NCc1ccc(-c2scnc2C)cc1)C(C)(C)SCCCCNC(=O)C[C@@H]1N=C(c2ccc(Cl)cc2)c2c(sc(C)c2C)-n2c(C)nnc21 | -3.8 |
| Cc1ncsc1-c1ccc(CNC(=O)[C@@H]2C[C@@H](O)CN2C(=O)[C@@H](NC(=O)COCCOCCOCCOCC(=O)N[C@H](C(=O)N2C[C@H](O)C[C@H]2C(=O)NCc2ccc(-c3scnc3C)cc2)C(C)(C)C)C(C)(C)C)cc1 | -3.8 |
| Cc1ncsc1-c1ccc(CNC(=O)[C@@H]2C[C@@H](O)CN2C(=O)[C@@H](NC(=O)Cc2ccccc2)C(C)(C)C)cc1 | -0.7 |
| Cc1ncsc1-c1ccc(CNC(=O)[C@@H]2C[C@@H](O)CN2C(=O)[C@@H](NC(=O)COCCOCCNC(=O)C[C@@H]2N=C(c3ccc(Cl)cc3)c3c(sc(C)c3C)-n3c(C)nnc32)C(C)(C)C)cc1 | -1.1 |
| Cc1ncsc1-c1ccc(CNC(=O)[C@@H]2C[C@@H](O)CN2C(=O)[C@@H](NC(=O)COCCOCCOCCNC(=O)C[C@@H]2N=C(c3ccc(Cl)cc3)c3c(sc(C)c3C)-n3c(C)nnc32)C(C)(C)C)cc1 | -1.6 |
| Cc1ncsc1-c1ccc(CNC(=O)[C@@H]2C[C@@H](O)CN2C(=O)[C@@H](NC(=O)[C@H](Cc2ccccc2)NC(=O)COCCOCCOCCNC(=O)C[C@@H]2N=C(c3ccc(Cl)cc3)c3c(sc(C)c3C)-n3c(C)nnc32)C(C)(C)C)cc1 | -1.6 |
